Activity calls are given as the source filed them.
What was measured:
[1] = biological target: T1, Hexokinase HKDC1 (Homo sapiens, UniProt Q2TB90); assay: SAR analysis of small molecule inhibitors of hexokinase domain containing I (HKDC1). [Related pubchem assays (depositor defined):AID493160, AID493190]; assay type: functional
T1 sequence (Q2TB90 whole entry): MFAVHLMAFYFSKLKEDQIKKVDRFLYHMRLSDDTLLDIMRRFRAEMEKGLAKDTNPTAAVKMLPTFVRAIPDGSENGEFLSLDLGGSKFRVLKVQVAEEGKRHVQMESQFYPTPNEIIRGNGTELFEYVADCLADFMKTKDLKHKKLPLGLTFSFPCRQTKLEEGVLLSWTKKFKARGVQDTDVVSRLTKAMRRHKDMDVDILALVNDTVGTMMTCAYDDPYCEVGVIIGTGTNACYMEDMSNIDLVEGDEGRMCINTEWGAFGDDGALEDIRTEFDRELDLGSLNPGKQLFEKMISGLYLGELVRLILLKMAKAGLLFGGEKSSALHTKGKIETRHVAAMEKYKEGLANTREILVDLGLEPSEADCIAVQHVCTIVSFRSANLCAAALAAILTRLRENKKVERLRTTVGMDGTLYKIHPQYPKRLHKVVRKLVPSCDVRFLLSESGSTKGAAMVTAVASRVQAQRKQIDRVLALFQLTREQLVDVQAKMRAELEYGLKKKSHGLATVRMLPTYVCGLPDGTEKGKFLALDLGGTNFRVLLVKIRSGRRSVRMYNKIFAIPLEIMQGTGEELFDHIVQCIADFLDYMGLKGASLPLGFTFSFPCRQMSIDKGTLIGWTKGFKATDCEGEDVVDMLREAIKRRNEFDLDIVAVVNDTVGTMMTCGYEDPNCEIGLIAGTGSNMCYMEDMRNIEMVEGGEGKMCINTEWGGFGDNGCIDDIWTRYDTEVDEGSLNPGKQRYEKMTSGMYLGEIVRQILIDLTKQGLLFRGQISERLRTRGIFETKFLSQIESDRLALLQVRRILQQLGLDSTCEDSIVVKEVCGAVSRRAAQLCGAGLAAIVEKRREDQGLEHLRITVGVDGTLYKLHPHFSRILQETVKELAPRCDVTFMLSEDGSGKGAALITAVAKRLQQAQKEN

[2] = biological target: T2, Hexokinase-1 (Homo sapiens, UniProt P19367); assay: SAR analysis of small molecule inhibitors of hexokinase domain containing I (HKDC1) in the hexokinase 1 selectivity assay. [Related pubchem assays (depositor defined):AID493160, AID493190]; assay type: functional
T2 sequence (P19367 whole entry): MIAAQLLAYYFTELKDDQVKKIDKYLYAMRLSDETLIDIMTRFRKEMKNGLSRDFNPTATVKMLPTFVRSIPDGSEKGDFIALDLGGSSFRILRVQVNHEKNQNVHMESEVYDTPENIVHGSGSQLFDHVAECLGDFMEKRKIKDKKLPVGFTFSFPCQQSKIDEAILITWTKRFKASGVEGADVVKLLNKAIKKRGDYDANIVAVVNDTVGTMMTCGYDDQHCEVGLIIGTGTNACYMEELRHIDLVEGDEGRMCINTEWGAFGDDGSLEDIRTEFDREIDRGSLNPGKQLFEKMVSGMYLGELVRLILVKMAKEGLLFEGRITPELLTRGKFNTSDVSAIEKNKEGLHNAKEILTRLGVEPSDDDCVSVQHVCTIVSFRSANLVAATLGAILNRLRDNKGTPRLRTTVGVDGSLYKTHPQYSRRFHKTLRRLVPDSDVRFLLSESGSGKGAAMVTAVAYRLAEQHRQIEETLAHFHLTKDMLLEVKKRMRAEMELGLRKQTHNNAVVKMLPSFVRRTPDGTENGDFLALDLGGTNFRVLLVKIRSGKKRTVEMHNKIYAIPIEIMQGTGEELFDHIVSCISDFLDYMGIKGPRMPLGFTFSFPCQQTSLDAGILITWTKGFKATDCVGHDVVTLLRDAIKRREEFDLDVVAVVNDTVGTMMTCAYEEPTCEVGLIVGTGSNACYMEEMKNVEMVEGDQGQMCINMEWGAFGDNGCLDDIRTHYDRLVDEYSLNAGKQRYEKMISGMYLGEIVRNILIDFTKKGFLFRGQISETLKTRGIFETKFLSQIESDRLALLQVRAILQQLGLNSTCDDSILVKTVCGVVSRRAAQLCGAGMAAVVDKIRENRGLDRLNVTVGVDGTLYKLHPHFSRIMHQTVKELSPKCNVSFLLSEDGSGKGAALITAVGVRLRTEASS

[3] = tested on: HEK293; assay: cells; assay type: functional, cell-based; settings: Homo sapiens
[4] = tested on: HEK293; assay: cells; assay type: functional, cell-based; settings: Homo sapiens; remark: listed apart in the source
[5] = tested on: HEK293; assay: NOD1 signaling inhibitors, primary screen, cell-based, luminescence, uHTS (AID 1578); assay type: functional; settings: Homo sapiens
[6] = tested on: HEK293; assay: cells; assay type: functional, cell-based; settings: Homo sapiens; remark: listed apart in the source
[7] = tested on: HEK293; assay: cells; settings: Homo sapiens
[8] = tested on: HEK293; assay: NOD2 signaling inhibitors in MDP-stimulated cells, cell-based, uHTS, luminescence (AID 2001); assay type: functional; settings: Homo sapiens
[9] = biological target: SUMO-activating enzyme (Homo sapiens, UniProt Q9UBT2); assay: SUMOylation inhibitor hit validation, confirmation, SUMOylation inhibitor project, biochemical, AlphaScreen (AID 2018); assay type: functional
SUMO-activating enzyme, sequence (Q9UBE0 whole entry): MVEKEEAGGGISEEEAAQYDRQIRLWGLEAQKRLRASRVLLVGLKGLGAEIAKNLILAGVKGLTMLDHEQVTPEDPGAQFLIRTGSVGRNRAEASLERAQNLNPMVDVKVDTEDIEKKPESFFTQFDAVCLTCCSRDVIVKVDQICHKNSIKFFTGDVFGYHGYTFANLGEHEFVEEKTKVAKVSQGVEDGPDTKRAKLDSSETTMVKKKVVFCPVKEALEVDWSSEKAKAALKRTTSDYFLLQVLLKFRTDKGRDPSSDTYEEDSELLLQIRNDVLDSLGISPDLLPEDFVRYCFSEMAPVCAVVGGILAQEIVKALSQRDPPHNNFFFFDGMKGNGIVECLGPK
SUMO-activating enzyme, sequence (Q9UBT2 whole entry): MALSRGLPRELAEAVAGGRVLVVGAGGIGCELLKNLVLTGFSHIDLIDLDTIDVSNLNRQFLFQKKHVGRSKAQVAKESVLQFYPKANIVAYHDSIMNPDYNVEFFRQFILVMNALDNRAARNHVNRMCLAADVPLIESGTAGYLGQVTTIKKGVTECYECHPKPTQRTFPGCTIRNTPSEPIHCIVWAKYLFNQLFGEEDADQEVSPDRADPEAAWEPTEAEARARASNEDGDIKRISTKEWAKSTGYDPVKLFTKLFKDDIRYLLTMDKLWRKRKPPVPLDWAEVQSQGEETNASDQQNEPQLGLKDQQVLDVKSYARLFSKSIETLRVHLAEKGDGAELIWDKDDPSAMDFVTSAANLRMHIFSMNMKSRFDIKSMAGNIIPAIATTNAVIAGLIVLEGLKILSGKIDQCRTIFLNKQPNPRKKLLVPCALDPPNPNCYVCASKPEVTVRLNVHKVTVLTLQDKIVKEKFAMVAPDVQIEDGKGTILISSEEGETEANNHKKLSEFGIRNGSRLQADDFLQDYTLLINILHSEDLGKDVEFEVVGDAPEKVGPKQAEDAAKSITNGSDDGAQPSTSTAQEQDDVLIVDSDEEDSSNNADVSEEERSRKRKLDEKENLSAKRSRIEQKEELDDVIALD

[10] = biological target: Cytochrome P450 2D6 (Homo sapiens, UniProt P10635);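 further: CYP2D6 member of a cytochrome P450 panel assay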
Cytochrome P450 2D6, sequence (P10635 whole entry): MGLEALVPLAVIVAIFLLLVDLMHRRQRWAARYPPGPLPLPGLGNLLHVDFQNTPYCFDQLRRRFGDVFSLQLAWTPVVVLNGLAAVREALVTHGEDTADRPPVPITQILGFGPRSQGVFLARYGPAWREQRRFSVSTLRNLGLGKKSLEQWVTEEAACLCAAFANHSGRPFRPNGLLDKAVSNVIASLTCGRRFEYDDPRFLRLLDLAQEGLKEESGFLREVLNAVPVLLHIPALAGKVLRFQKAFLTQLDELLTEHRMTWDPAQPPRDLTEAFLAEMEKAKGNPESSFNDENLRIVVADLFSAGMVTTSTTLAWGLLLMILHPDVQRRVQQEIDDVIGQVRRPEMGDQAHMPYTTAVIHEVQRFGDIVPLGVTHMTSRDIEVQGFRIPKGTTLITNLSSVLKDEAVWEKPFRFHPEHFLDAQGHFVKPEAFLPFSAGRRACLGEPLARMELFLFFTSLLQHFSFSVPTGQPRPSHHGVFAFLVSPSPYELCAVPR

[11] = biological target: Cytochrome P450 2C19 (Homo sapiens, UniProt P33261); assay: Cytochrome panel assay with activity outcomes. Panel member name: p450-cyp2c19 Compounds with AC50 equal or less than 10 uM are considered active; assay type: functional; settings: read-out: AC50
Cytochrome P450 2C19, sequence (P33261 whole entry): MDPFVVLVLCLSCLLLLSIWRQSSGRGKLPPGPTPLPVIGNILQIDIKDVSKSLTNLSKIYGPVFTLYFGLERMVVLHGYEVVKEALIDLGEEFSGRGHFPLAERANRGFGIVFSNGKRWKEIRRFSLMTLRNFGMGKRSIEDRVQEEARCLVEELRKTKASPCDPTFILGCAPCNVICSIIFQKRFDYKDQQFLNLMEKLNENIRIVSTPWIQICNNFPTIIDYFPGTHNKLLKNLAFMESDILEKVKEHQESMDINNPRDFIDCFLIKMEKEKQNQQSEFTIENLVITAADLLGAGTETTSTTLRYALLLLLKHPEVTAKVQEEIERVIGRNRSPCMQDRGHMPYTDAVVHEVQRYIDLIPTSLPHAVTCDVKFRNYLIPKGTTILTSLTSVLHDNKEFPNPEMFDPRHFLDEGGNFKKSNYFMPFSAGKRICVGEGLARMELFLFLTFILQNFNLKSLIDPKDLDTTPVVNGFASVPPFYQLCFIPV

[12] = biological target: Cytochrome P450 2C9 (Homo sapiens, UniProt P11712)
Cytochrome P450 2C9, sequence (P11712 whole entry): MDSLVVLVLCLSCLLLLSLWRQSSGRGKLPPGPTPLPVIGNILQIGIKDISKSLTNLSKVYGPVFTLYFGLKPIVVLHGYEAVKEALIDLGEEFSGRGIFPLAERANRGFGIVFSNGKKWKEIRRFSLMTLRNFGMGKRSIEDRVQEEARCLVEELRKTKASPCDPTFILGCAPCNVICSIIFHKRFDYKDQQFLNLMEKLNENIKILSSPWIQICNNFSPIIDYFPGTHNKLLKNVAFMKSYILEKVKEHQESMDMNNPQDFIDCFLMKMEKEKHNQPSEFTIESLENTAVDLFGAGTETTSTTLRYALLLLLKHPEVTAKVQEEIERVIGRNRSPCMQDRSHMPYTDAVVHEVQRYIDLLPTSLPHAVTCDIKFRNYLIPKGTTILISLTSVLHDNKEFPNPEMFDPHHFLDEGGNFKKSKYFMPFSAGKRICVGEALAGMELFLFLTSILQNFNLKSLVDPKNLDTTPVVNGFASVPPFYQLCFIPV

[13] = biological target: T3, COUP transcription factor 2 (Homo sapiens, UniProt P24468); assay: Luminescence-based cell-based high throughput dose response assay to identify inhibitors of COUP-TFII (NR2F2).; assay type: functional;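 further: HEK293 cells transiently cotransfected with COUP-TFII expression vector and reporter; luciferase reporter luminescence driven by COUP-TFII from the pX2-168 reporter plasmid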
T3 sequence (P24468 whole entry): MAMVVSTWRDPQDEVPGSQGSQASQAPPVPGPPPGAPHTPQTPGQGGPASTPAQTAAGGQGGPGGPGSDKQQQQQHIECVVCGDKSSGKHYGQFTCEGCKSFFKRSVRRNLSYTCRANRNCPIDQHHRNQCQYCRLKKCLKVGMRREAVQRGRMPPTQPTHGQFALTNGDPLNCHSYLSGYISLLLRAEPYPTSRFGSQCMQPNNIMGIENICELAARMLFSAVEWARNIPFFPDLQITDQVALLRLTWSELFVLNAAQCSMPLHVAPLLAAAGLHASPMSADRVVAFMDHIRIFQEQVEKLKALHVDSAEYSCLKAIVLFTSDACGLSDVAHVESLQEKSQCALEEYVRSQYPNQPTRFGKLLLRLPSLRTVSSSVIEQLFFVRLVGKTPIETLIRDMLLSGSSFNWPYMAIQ

[14] = biological target: Nucleotide-binding oligomerization domain-containing protein 2 (Homo sapiens, UniProt Q9HC29); assay: NOD2 signaling inhibitors, cell-based, luminescence, uHTS, HEK293 (AID 1566); assay type: functional
Nucleotide-binding oligomerization domain-containing protein 2, sequence (Q9HC29 whole entry, the tested form may be a part): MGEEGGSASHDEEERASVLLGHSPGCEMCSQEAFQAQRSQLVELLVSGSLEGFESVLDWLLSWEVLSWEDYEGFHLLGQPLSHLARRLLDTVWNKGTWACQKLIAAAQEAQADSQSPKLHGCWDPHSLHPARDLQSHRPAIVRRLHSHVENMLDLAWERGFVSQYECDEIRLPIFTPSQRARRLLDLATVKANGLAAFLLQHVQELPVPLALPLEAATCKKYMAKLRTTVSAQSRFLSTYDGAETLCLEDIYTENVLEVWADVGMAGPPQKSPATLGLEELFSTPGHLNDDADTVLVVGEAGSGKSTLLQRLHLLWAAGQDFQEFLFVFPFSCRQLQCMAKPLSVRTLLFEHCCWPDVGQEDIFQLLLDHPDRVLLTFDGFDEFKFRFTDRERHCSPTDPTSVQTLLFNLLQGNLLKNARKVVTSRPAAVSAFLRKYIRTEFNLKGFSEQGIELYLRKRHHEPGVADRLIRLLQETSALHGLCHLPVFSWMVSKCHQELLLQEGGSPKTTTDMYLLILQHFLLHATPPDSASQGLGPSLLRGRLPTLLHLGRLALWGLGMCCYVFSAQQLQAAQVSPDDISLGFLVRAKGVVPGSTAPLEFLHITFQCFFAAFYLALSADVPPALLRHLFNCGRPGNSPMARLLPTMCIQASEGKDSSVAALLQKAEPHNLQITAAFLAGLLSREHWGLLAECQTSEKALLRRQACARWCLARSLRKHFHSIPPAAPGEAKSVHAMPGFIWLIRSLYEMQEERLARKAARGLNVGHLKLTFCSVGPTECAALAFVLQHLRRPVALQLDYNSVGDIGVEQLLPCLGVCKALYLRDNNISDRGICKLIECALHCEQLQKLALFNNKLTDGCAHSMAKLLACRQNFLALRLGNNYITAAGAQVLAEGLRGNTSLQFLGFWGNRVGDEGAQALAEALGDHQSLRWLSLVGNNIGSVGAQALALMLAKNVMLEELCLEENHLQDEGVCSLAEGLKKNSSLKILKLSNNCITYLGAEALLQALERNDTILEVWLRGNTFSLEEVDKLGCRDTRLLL

[15] = biological target: Tumor necrosis factor (Homo sapiens, UniProt P01375); assay: TNFa-triggered NF-kB activation inhibitors, SAR follow-up, cell-based, revised (AID 2337); assay type: functional
Tumor necrosis factor, sequence (P01375 whole entry, the tested form may be a part): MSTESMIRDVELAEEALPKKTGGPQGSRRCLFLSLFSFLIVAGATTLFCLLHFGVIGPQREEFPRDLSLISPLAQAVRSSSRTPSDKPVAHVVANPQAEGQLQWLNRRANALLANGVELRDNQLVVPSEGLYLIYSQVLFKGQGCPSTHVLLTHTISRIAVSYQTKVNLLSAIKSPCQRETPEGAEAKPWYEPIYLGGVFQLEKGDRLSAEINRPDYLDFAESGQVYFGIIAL

[16] = biological target: T4, Nucleotide-binding oligomerization domain-containing protein 1 (Homo sapiens, UniProt Q9Y239); assay: NOD1 signaling inhibitors, SAR follow-up, revised (AID 2333); assay type: functional
T4 sequence (Q9Y239 whole entry): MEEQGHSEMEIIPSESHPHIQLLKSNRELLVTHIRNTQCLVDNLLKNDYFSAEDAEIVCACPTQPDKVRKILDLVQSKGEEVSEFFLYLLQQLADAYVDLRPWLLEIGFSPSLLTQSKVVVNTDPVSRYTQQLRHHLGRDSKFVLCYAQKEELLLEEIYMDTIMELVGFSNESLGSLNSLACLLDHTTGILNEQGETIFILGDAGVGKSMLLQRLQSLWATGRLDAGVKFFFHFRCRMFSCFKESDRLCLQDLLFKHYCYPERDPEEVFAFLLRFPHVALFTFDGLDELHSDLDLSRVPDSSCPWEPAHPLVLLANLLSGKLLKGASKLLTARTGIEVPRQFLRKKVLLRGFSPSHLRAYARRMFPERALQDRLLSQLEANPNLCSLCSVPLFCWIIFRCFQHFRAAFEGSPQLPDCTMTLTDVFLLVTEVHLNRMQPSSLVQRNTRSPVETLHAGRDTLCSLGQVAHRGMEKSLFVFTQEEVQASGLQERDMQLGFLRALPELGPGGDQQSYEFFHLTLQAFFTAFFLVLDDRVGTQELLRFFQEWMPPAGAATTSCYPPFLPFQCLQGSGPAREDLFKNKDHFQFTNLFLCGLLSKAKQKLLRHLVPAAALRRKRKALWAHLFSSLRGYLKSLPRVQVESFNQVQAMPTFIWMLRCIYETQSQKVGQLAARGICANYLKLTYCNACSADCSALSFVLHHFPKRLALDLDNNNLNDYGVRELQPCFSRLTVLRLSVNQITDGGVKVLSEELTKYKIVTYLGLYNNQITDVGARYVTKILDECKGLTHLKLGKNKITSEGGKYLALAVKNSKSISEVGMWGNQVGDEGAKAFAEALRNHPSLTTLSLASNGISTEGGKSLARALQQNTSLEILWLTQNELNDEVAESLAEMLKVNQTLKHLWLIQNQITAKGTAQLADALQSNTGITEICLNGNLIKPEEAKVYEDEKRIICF

[17] = Shn3 3'UTR reporter inhibitors, dose response, cell-based, Clone20 osteoblasts, firefly luciferase, cherry-picked (AID 624132); assay type: functional;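 further: firefly luciferase luminescence from reporter carrying the Shn3 3'UTR in osteoblasts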
[18] = control 3'UTR Renilla luciferase suppression, dose response, counter-screen for Shn3 inhibitor project, cell-based, Clone20-Shn3RL, cherry-picked (AID 624133); assay type: functional
[19] = tested on: INS1; assay: beta cell apoptosis inhibitors, cytokine rescue, dose response, luminescence, retest (AID 449756); assay type: functional, cell-based; settings: Rattus norvegicus;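 further: cell death triggered by IL-1 beta plus TNF-alpha plus IFN-gamma mixture; protective hits raise ATP signal compared with cytokine alone wells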

In the case of `Cc1ccc(C)c(S(=O)(=O)Nc2cccc3ccccc23)c1`, the IC50 [1] is reported as > 80 µM (inactive) and the IC50 [2] is reported as > 80 µM (inactive).

For `Cc1nn(-c2ccccc2)c2nc(C(Cl)(Cl)Cl)nc(O)c12`, the IC50 [3] was > 20 µM (inactive), the IC50 [4] was > 20 µM (inactive) and the EC50 [5] was 12.4 µM (active). For the same molecule, the IC50 [6] was > 20 µM (inactive), the IC50 [7] was > 20 µM (inactive) and the IC50 [8] was 17.9 µM (inactive).

For `Cc1cc(OC(C(=O)O)c2ccccc2)c2c(C)c(Cc3ccccc3)c(=O)oc2c1` (stereo not drawn), the IC50 [9] was 41.3 µM (active).

In the case of `O=c1c2ccccc2nc(/C=C/c2ccccc2)n1CCc1ccccc1`, the IC50 [1] is reported as > 80 µM (inactive) and the IC50 [2] is reported as > 80 µM (inactive).

For `O=C(CCN1C(=O)C2C3C=CC(C3)C2C1=O)Nc1ccc2ncccc2c1` (stereo not drawn), the AC50 [10] was “inconclusive” and the AC50 [11] was 20 µM (inconclusive).

For `CO/N=C(/C)CCC(=O)OC[C@@H]1O[C@H](C#Cc2ccccc2)C=C[C@@H]1Oc1ccc(C)cc1`, the AC50 [10] was “inconclusive”.

For `O=S(=O)(Nc1ccc(O)c2ccccc12)c1ccc(Cl)cc1`, the IC50 [1] was 15.6 µM (active) and the IC50 [2] was > 80 µM (inactive).

In the case of `C/C(=N/NC(=O)c1ccc(NC(=O)c2ccc(F)cc2)cc1)c1ccccc1`, the AC50 [10] is reported as “inconclusive” and the AC50 [12] is reported as 5.01 µM (inconclusive).

For `NC(=O)c1ccsc1NC(=O)COC(=O)Cc1cccc2ccccc12`, the IC50 [13] was 13.8 µM (inactive).

For `CO[C@H]1COC(=O)[C@@H](Cc2ccccc2)NC(=O)[C@@H](C)COC(=O)CCC[C@@H]1C`, the AC50 [10] was “inconclusive”.

For `CCN(CC)S(=O)(=O)c1cccc(NC(=O)COC(=O)c2[nH]c(C)c(C(C)=O)c2C)c1`, the IC50 [13] was 5.62 µM (active).

With `CC(C)[C@](N)(C(=O)O)c1ccccc1` the AC50 [10] was “inconclusive”.

With `O=C(c1ccc(S(=O)(=O)c2cccc(Cl)c2)c([N+](=O)[O-])c1)N1CCN(c2ccccn2)CC1` the IC50 [3] was 10.4 µM (active), the IC50 [4] was 1.72 µM (active) and the EC50 [14] was 12.3 µM (active). The IC50 [15] was 4.43 µM (active), the EC50 [5] was 10.1 µM (active) and the IC50 [6] was > 20 µM (inactive). The IC50 [7] was 8.21 µM (active), the IC50 [8] was 1.95 µM (active) and the IC50 [16] was 1.4 µM (active).

In the case of `Cc1cc(C(=O)NC2CCCc3c2cnn3-c2ccc(C)c(C)c2)n(C)n1` (stereo not drawn), the IC50 [13] is reported as > 0.117 µM (active), the IC50 [15] is reported as 0.0793 µM (active) and the AC50 [17] is reported as < 0.26 µM (active). For the same molecule, the AC50 [18] was < 0.26 µM (active), the AC50 [19] was 0.24 µM (active) and the IC50 [7] was > 20 µM (inactive). The IC50 [16] was 0.0431 µM (active).
